One experiment deals with Staph. aureus ATCC 29213. Put plainly: MIC, agar dilution method in Mueller Hinton agar. The experiment is classed as cell-based. The conditions noted are these: Staphylococcus aureus, ATCC29213, read-out: Minimum Inhibiting Concentration Values. As to the method: (§1) In vitro activity was determined by minimum inhibitory concentration in a microorganism spectum by the agar dilution method in Mueller Hinton agar.

The next experiment concerns Ps. aeruginosa 5712. Kind of experiment: MIC, agar dilution method in Mueller Hinton agar. To be noted: Pseudomonas aeruginosa, read-out: Minimum Inhibiting Concentration Values. The experiment is classed as cell-based. As to the method:
as §1
(In agar dilution, organisms are placed on agar that contains the substance at set levels.)

The test system of a further experiment is Str. pyogenes 4. Put plainly: MIC, agar dilution method in Mueller Hinton agar. To be noted: Streptococcus pyogenes, read-out: Minimum Inhibiting Concentration Values. In kind it is cell-based. As to the method:
as §1

The test system of experiment [1] is Ps. aeruginosa ATCC 27853. Put plainly: MIC, agar dilution method in Mueller Hinton agar. The experiment is classed as cell-based. To be noted: Pseudomonas aeruginosa, ATCC27853, read-out: Minimum Inhibiting Concentration Values. The procedure: as §1
A further experiment relates to Prot. vulgaris ATCC 6380. Put plainly: MIC, agar dilution method in Mueller Hinton agar. The conditions noted are these: Proteus vulgaris, ATCC6380, read-out: Minimum Inhibiting Concentration Values. In kind it is cell-based. The procedure: as §1
The test system of the next experiment is E. coli ATCC 25922. Put plainly: MIC, agar dilution method in Mueller Hinton agar. The experiment is classed as cell-based. The conditions noted are these: Escherichia coli, ATCC25922, read-out: Minimum Inhibiting Concentration Values. As to the method: as §1
The subject of a further experiment is Str. pneumoniae 6301. Put plainly: MIC, agar dilution method in Mueller Hinton agar. In kind it is cell-based. The conditions noted are these: Streptococcus pneumoniae; Str. pneumoniae 6301; read-out: Minimum Inhibiting Concentration Values. As to the method:
as §1

In the next experiment the test system is E. coli TEM-1. Kind of experiment: MIC, agar dilution method in Mueller Hinton agar. The experiment is classed as cell-based. The conditions noted are these: Escherichia coli, TEM1, read-out: Minimum Inhibiting Concentration Values. As to the method:
as §1

The next experiment concerns Staph. aureus Smith. Kind of experiment: MIC, agar dilution method in Mueller Hinton agar. In kind it is cell-based. To be noted: Staphylococcus aureus, read-out: Minimum Inhibiting Concentration Values. The procedure:
as §1

The test system of a further experiment is Escherichia coli 25922. Put plainly: Efficacy against systemic infections (septicemia) in mice. The experiment is classed as in vivo. To be noted: 96 h, Escherichia coli 25922, po (orally) 1 and 3 h after challenge, survival day 4. A digest of the protocol: (§2)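 Swiss albino mice (16–20 g) infected i.p. with 4–10× the 48-h LD50 of each strain; compound given p.o. or s.c. at 1 and 3 h post-challenge, plus 5 h for P. aeruginosa BA. Five mice per group; ED50 (mg/kg) by probit analysis of day-4 survival.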

Experiment [2] deals with Pseudomonas aeruginosa BA. Described as above. The experiment is classed as in vivo. To be noted: 96 h, sc (subcutaneous) 1, 3 and 5 h after challenge, survival day 4. A digest of the protocol: as §2
In experiment [3] the test system is Streptococcus pyogenes 15. The description is as above. In kind it is in vivo. To be noted: 96 h, Streptococcus pyogenes 15, po (orally) 1 and 3 h after challenge, survival day 4. A digest of the protocol: as §2

Molecules are shown by their SMILES. Counter-ions that a name gives are not always drawn.

Usually ED50 stands for the midpoint of the dose-response relation. Read a low ED50 as an effect at a small dose. `Nc1nc(/C(=N/OCC(=O)O)C(=O)N[C@@H]2C(=O)N3C(C(=O)O)=C(/C=C4\CCN(C5CC5)C4=O)CS[C@H]23)cs1` [C, [6R-[3(E),6α,7β(Z)]]-7-[[(2-Amino-4-thiazolyl)[(carboxy-methoxy)imino]-acetyl]amino]-3-[[1-cyclopropyl-2-oxo-3-pyrrolidinylidene]-methyl]-8-oxo-5-thia-1-azabicyclo[4.2.0]oct-2-ene-2-carboxylic acid disodium salt]: the MIC was 16 µg/mL in the experiment with Staph. aureus ATCC 29213; 4 µg/mL in the experiment with Ps. aeruginosa 5712; 0.125 µg/mL in the experiment on Str. pyogenes 4; 4 µg/mL in experiment [1]; at most 0.0156 µg/mL in the experiment with Prot. vulgaris ATCC 6380; 0.0313 µg/mL in the experiment with E. coli ATCC 25922. Also, the MIC was 0.0625 µg/mL in the experiment on Str. pneumoniae 6301, 0.0313 µg/mL in the experiment with E. coli TEM-1 and 8 µg/mL in the experiment on Staph. aureus Smith. Besides, the 50% effective dose (ED50) in the experiment with Escherichia coli 25922 was under 0.1 mg/kg; in experiment [2] it was 12 mg/kg; in [3] it was 0.78 mg/kg.

The values are drawn from patent EP0620225B1, “Cephalosporin derivatives” (Basilea Pharmaceutica AG, priority 1993, dated 1994).
